The record followed here is patent US20150203517A1, “Prodrugs of Compounds that Enhance Antifungal Activity and Compositions of Said Prodrugs” (priority 2014, published 2015).

Data set [1] in a line: Saline solubility at 1.00 mg/mL and 0.50 mg/mL (with pH by indicator paper). The format is physicochemical. Conditions: for pH at 1.00 mg/mL of MGCD290 in saline: final concentration of hydroxamate 1 1.00 mg/mL, pH indicator paper; for solubility at 1 h: saline or isotonic, thermodynamic from solid, 1.00 mg/mL as hydroxamate 1, shaken 1 hour, centrifuged, soluble = no precipitate formed, read-out: Soluble at 1.00 mg/mL of MGCD290 (Y/N). The procedure, abridged: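 Prodrug was weighed to give 1.00 mg/mL hydroxamate equivalent in saline, vortexed 1 h and centrifuged, and diluted to 0.50 mg/mL if it precipitated. pH was checked by indicator paper. Stability in solution diluted 1:1 with saline was followed by HPLC-UV at 0, 6 and 24 h.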

The nature of data set [2]: Saline solubility at 10.00 mg/mL, 5.00 mg/mL and 2.50 mg/mL (with pH by pH meter). The format is physicochemical. Conditions: saline or isotonic, thermodynamic from solid, concentration expressed as equivalent of Cpd 1, highest tested concentration soluble, read-out: Highest prodrug solubility in saline (equivalent of Cpd 1). The protocol: The following procedures were used
Step 1. Sample preparation. An amount of the compound sample was precisely weighed to correspond to around 10 mg of the hydroxamate of compound 1, taking into account the mass of the leaving group and the salt factor if applicable. The sample was placed in a 16×125 mm glass screw cap tube. Saline was added so that the final concentration of hydroxamate 1 was 10.00 mg/mL. The tube was shaken for 1 hour on a Vortex apparatus then centrifuged at 3000 rpm (1800 rcf) for 5 minutes. If the compound example was soluble (no precipitate formed) then the pH was measured with a pH meter, and the procedure continued to step 2. If a precipitate formed then the sample was diluted with saline so that the final concentration of the hydroxamate of compound 1 became 5.00 mg/mL, and the shaking and centrifuging steps were repeated. If the compound example was soluble (no precipitate formed) then the pH was measured with a pH meter, and the procedure continued to step 2. If a precipitate formed then the sample was diluted with saline so that the final concentration of the hydroxamate of compound 1 became 2.50 mg/mL, and the shaking and centrifuging steps were repeated. If the compound example was soluble (no precipitate formed) then the pH was measured with a pH meter, and the procedure continued to step 2

Data set [3] can be described thus: Conversion of prodrugs to compound 1 in mouse plasma. The conditions noted are these: mouse plasma (Na-Heparin treated); for Prodrug loss at 0.5 hr / Prodrug loss at 1 hr: 37° C.; for Prodrug solubility in plasma: equivalent to 1.00 mg/mL of compound 1, * = Plasma quickly became cloudy. The format is in vitro ADME. The protocol: (§1) Step 1. Sample preparation. A quantity of blank mouse plasma (Na-Heparin treated) was incubated at 37° C. for 30 minutes. An amount of the compound sample was precisely weighed to correspond to around 5.00 mg of the hydroxamate of compound 1, taking into account the mass of the leaving group and the salt factor if applicable. The sample was placed in a 16×125 mm glass screw cap tube. The incubated blank mouse plasma was added so that the final concentration of hydroxamate 1 was 1.00 mg/mL. The sample was sonicated for 30 seconds, shaken for 30 seconds on a Vortex apparatus, and run through the HPLC procedure of Step 2 to get a time point zero value. The samples were stored in an incubator at 37° C., and the HPLC analysis of Step 2 was repeated at 30 minutes and 1 hour
(§2) Step 2. Protein precipitation and HPLC analysis of plasma. A 50 μL aliquot of plasma was taken in a 1.5 mL Eppendorf vial, to which was added 200 μL of MeCN. The vial was capped and shaken on a Vortex apparatus for 30 seconds, then centrifuged at 13000 rpm (15700 rcf) for five minutes. When centrifuging was complete, 100 μL of the supernatant was placed in an injection vial containing an insert, to which was added 100 μL of 0.1% formic acid in water. The vial was capped and shaken on a Vortex apparatus for 30 seconds, and the contents were injected into the HPLC-UV instrument, and a comparison was made of the retention time, peak areas and level of degradation (if any) using the GDADI50 method.

Data set [4] in a line: Conversion of prodrugs to compound 1 in human plasma. The format is in vitro ADME. Conditions: human plasma (Na-Heparin treated), 37° C. The protocol: as §1, with “blank human” for “blank mouse”, “repeated in” for “repeated at”, “1 hour.” for “1 hour”
as §2
Step 3. Reference sample preparation. An amount of the compound sample was precisely weighed to correspond to around 5.00 mg of the hydroxamate of compound 1, taking into account the mass of the leaving group and the salt factor if applicable. The sample was placed in a 16×125 mm glass screw cap tube. A quantity of MeCN/H2O 50/50 v/v was added so that the final concentration of hydroxamate 1 was 1.00 mg/mL. An injection vial was filled with 100 μL of this sample stock solution and 900 μL of a solution of 40/60 MeCN/0.1% formic acid in water. The vial was capped and the contents were injected into the HPLC-UV instrument, and a comparison was made of the retention time, peak areas and level of degradation (if any) using the GDADI50 method.

In the case of `COCCOCCOCCOCCOCCOCC(=O)N1CCC(CCC(=O)ONC(=O)Cc2ccc(CCCCc3ccccc3)cc2)CC1` [Compound 111, N-(3-(1-2,5,8,11,14,17-Hexaoxanonadecanepiperidin-4-yl)propanoyloxy)-2-(4-(4-phenylbutyl)phenyl)acetamide], in data set [1], the “pH at 1.00 mg/mL of MGCD290 in saline” value was 4.5-5 and the solubility at 1 h was over 1000 µg/mL. In data set [2], the solubility at 1 h was found to be 10000 µg/mL. Moreover, in data set [3], the “Prodrug loss at 0.5 hr” value was 98%, the “Prodrug loss at 1 hr” value is reported as 99% and the “Prodrug solubility in plasma” value is given as “Yes*”. Also, in data set [4], the “Prodrug loss at 0.5 hr” value is listed as 65.5% and the “Prodrug loss at 1 hr” value is listed as 90.5%.

For `COCCOCCOCC(=O)NCCCC[C@H](NC(=O)COCCOCCOC)C(=O)N(C)CCCC(=O)ONC(=O)Cc1ccc(CCCCc2ccccc2)cc1` [Compound 64, (S)—N,N′-(6-(Methyl(4-oxo-4-(2-(4-(4-phenylbutyl)phenyl)acetamidooxy)butyl)amino)-6-oxohexane-1,5-diyl)bis(2-(2-(2-methoxyethoxyl)ethoxy)acetamide)], in data set [1], the “pH at 1.00 mg/mL of MGCD290 in saline” value is given as 4.5-5 and the solubility at 1 h was over 1000 µg/mL. The solubility at 1 h in data set [2] worked out at 10000 µg/mL. Further, in data set [3], the “Prodrug loss at 0.5 hr” value is 100%, the “Prodrug loss at 1 hr” value worked out at 100% and the “Prodrug solubility in plasma” value is “Yes”. Besides, in data set [4], the “Prodrug loss at 0.5 hr” value was determined as 78.7% and the “Prodrug loss at 1 hr” value is reported as 100.0%.

On to `Cl.O=C(Cc1ccc(CCCCc2ccccc2)cc1)NOC(=O)CCC1CCNCC1` [Compound 110, 2-(4-(4-Phenylbutyl)phenyl)-N-(3-(piperidin-4-yl)propanoyloxy) acetamide hydrochloride], for which, in data set [1], the “pH at 1.00 mg/mL of MGCD290 in saline” value is listed as 4.5-5 and the solubility at 1 h was over 1000 µg/mL. Also, the solubility at 1 h in data set [2] stood at 10000 µg/mL. In data set [3], the “Prodrug loss at 0.5 hr” value came to 100%, the “Prodrug loss at 1 hr” value is on record as 100% and the “Prodrug solubility in plasma” value is listed as “Yes*”. In addition, in data set [4], the “Prodrug loss at 0.5 hr” value was determined as 85.5% and the “Prodrug loss at 1 hr” value was determined as 99.6%.

As to `COCCOCCOCC(=O)NCCCC[C@H](NC(=O)COCCOCCOC)C(=O)NCCC(=O)ONC(=O)Cc1ccc(CCCCc2ccccc2)cc1` [Compound 63, (S)—N,N′-(6-Oxo-6-(3-oxo-3-(2-(4-(4-phenylbutyl)phenyl)acetamidooxy)propylamino)hexane-1,5-diyl)bis(2-(2-(2-methoxyethoxyl)ethoxy)acetamide)], in data set [1], the solubility at 1 h was over 1000 µg/mL. Also, the solubility at 1 h in data set [2] turned out to be 1000 µg/mL. In data set [3], the “Prodrug loss at 0.5 hr” value was 100%, the “Prodrug loss at 1 hr” value was 100% and the “Prodrug solubility in plasma” value was “Yes*”. Besides, in data set [4], the “Prodrug loss at 0.5 hr” value was 99.3% and the “Prodrug loss at 1 hr” value amounted to 100.0%.

In the case of `COCCOCC(=O)NCCCC[C@H](NC(=O)COCCOC)C(=O)NCCCC(=O)ONC(=O)Cc1ccc(CCCCc2ccccc2)cc1` [Compound 100], in data set [1], the “pH at 1.00 mg/mL of MGCD290 in saline” value is listed as 4.5-5 and the solubility at 1 h is over 1000 µg/mL. Moreover, in data set [2], the solubility at 1 h amounted to 1000 µg/mL. Further, in data set [3], the “Prodrug loss at 0.5 hr” value is 100%, the “Prodrug loss at 1 hr” value came out at 100% and the “Prodrug solubility in plasma” value is given as “Yes*”. Besides, in data set [4], the “Prodrug loss at 0.5 hr” value was 69.4% and the “Prodrug loss at 1 hr” value is recorded as 93.4%.

On to `COCCOCCOCCOCCOCCOCC(=O)N1CCC(CCCC(=O)ONC(=O)Cc2ccc(CCCCc3ccccc3)cc2)CC1` [Compound 122], for which, in data set [1], the “pH at 1.00 mg/mL of MGCD290 in saline” value is recorded as 5.-5.5 and the solubility at 1 h was over 1000 µg/mL. Moreover, the solubility at 1 h in data set [2] was determined as 10000 µg/mL. In data set [3], the “Prodrug loss at 0.5 hr” value was 100%, the “Prodrug loss at 1 hr” value is recorded as 100% and the “Prodrug solubility in plasma” value is “Yes**”. In data set [4], the “Prodrug loss at 0.5 hr” value is 66.6% and the “Prodrug loss at 1 hr” value is listed as 91.9%.
